For this data set, the system named is macaques. Description: Replication of the SIV virus expressing Cre recombinase after infection in macaques (viral RNA in plasma). The note with it: one macaque infected, FIG. 17. Type of data set: in vivo. The text has this: FIG. 17 is a graph showing the replication of the SIV virus expressing Cre recombinase evaluated by the number of copies of viral RNA/ml of plasma (y-axis) after infection in macaques, as a function of time (in days).
The dose and the route of infection are able to be modified as a function of the scientific aims of the experimentation. A method is briefly described below: • Infect the macaques intravenously (50 AID50) or mucosally (50-5000 AID50). • Monitor the viral load in kinetic conditions by quantification of the viral RNAs in the plasma of the infected animals.

As for “SIVmac239-Nef-IRES-Cre: SIVmac239 virus expressing Cre recombinase via Nef-IRES-Cre (SEQ ID NO: 25; plasmid SEQ ID NO: 13)”, the “replication dynamics (copies of viral RNA/ml of plasma over time)” value is “normal replication dynamics”.

Source of the values: patent US20170350889A1, “CELL IDENTIFICATION METHOD” (Centre National De La Recherche Scientifique (CNRS), priority 2014, published 2017).
